In patent EP1793002A1 (priority 2004, dated 2006):
Where two headings read alike, the source gives them in different places.

Tests used:
[1] = molecular target: T1, luciferase standard enzyme (Photinus pyralis, UniProt P08659); conditions: 2 mM; for Max RLU / Max Time: with 2 mM sodium diethyldithiocarbamate, 10% glycerol; for Max RLU%: relative to the system without pyrophosphoric acid (no PPi)
Method: A "luciferase luminescent reagent" containing 20 mM tricine, 1.07 mM (MgCO3)4Mg(OH)2.5H2O, 2.67 mM magnesium sulfate, 0.1 mM EDTA, 470 µM luciferin and 530 µM adenosine triphosphate (ATP), pH 7.8 was prepared in accordance with the formulation described in the instructions included in "PicaGene Luminescent Kit" (Toyo Ink Manufacturing Co., Ltd.; product No. PGL100), except that 270 µM CoA and 33.3 mM DTT (thiol reagents) mentioned in the instructions were not added. […] In both reagents thus prepared, glycerol (final concentration: 10%) was allowed to co-exist in order to promote stabilization of luciferase enzyme.
A luciferase enzyme solution (100 ng/ml) was prepared by diluting "luciferase standard enzyme (10 µg/ml)" included in "PicaGene Luminescent Kit" (Toyo Ink Manufacturing Co., Ltd.; product No. PGL100) with "PicaGene Cell Lysis Reagent LUC" (Toyo Ink Manufacturing Co., Ltd.; product No. PGC50). 10 µl of this luciferase enzyme solution was taken into a cuvette of a luminometer (Berthold, LB9506). First, 100 µl of the "luciferase luminescent reagent" prepared above was added to the enzyme solution. Immediately after the addition, the resulting mixed solution was loaded onto the luminometer, and the quantity of light emitted (RLU/sec) was measured for the initial 200 seconds at intervals of 25 seconds. Then, the quantity of light emitted was measured in the same manner using the "luciferase luminescent reagent (+improvement)".

[2] = system: luciferin/luciferase luminescent reactions; conditions: for Max RLU / Max Time: 1 mM in ATP luminescent reagent; for Max RLU%: relative to the reaction system without pyrophosphoric acid (no PPi)
Method: To a 5 ml aliquot of this reagent, pyrophosphoric acid (Wako Purechemical Industries, Ltd.) was added to give a final concentration of 1 mM. Subsequently, ATP standard reagent (ATP concentration = 1 x 10^-12 M) included in the kit was dispensed into a microtiter plate at 100 µl/well. […] The same operations were performed on ATP luminescent reagent without pyrophosphoric acid. Further, ATP luminescent reagent to which potassium pyrophosphate or sodium pyrophosphate was added at a final concentration of 1 mM instead of pyrophosphoric acid was also prepared, and the above-described operations were performed.

[3] = molecular target: T1, luciferase standard enzyme; conditions: 1.5mM PPiK; relative to w/o pyrophosphoric acid
Method: A "luciferase luminescent reagent" containing 20 mM tricine, 1.07 mM (MgCO3)4Mg(OH)2.5H2O, 2.67 mM magnesium sulfate, 0.1 mM EDTA, 33.3 mM DTT, 470 µM luciferin, 270 µM CoA and 530 µM adenosine triphosphate (ATP), pH 7.8 was prepared in accordance with the formulation described in the instructions included in "PicaGene Luminescent Kit" (Toyo Ink Manufacturing Co., Ltd.; product No. PGL100). […] Further, glycerol and DTT were allowed to co-exist in each of the above luminescent reagents at final concentrations of 10% and 1 mM, respectively, in order to promote the stabilization of luciferase enzyme.
A luciferase enzyme solution (100 ng/ml) was prepared by diluting "luciferase standard enzyme (10 µg/ml)" included in "PicaGene Luminescent Kit" (Toyo Ink Manufacturing Co., Ltd.; product No. PGL100) with "PicaGene Cell Lysis Reagent LUC" (Toyo Ink Manufacturing Co., Ltd.; product No. PGC50). 10 µl of this luciferase enzyme solution was dispensed into each well of a microtiter plate. Subsequently, 100 µl of the above-described luminescent reagent was added to the enzyme solution in each well. […] Since luciferin/luciferase luminescent reactions are greatly affected by temperature, all operations and measurements with a luminometer were performed in a thermostatic chamber set at 23°C.
Then, the above-described operations were repeated. […]

luciferase enzyme = assay: ATP assay, time course of light emission with ATP luminescent reagent (Example 3, microtiter plate, 23°C); type: biochemical; conditions: 2 mM, added as organic sulfur reagent
Description: Then, the above-described operations were repeated.

T1 sequence (P08659 whole entry): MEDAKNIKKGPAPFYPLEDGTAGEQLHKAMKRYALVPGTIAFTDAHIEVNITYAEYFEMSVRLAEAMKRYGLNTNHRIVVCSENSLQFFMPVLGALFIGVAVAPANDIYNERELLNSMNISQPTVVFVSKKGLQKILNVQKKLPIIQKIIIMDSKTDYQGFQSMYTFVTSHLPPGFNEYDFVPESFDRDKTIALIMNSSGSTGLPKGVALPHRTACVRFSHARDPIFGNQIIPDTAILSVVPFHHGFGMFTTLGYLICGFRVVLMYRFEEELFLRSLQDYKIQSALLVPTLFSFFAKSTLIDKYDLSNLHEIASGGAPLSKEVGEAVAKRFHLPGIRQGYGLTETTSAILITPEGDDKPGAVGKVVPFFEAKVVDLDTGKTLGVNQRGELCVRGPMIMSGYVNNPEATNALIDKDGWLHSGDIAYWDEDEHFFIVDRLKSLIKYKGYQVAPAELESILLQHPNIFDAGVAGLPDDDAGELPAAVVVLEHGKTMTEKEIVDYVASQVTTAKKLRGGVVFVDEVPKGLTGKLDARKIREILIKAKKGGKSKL

Compound | Max RLU [1] | Max Time [1] | Max RLU% [1] | Max RLU [2] | Max Time [2] | initial luminescence ([2]; 1 mM, relative to the initial luminescence with the ATP luminescent reagent) | Max RLU% ([2]; 1 mM) | time at which the quantity of light emitted reached the maximum value ([2]; after the start of the measurement) | Max RLU% [3] | effect on the stabilization of luminescent reactions (luciferase enzyme)
O=P(O)(O)OP(=O)(O)O [PPi, pyrophosphoric acid] | 67904.5 RLU | 6 min | 55.4% | 30874.3 RLU | 5 min | ≤ 50% | 48.9% | 5 min |  | 
O=P([O-])([O-])OP(=O)([O-])[O-].[K+].[K+].[K+].[K+] [PPiK, potassium pyrophosphate] | 31448.0 RLU | 12 min | 25.6% | 16800.3 RLU | 15 min |  | 26.6% |  | 27.5% | 
O=P([O-])([O-])OP(=O)([O-])[O-].[Na+].[Na+].[Na+].[Na+] [PPiNa, sodium pyrophosphate] | 30290.8 RLU | 12 min | 24.7% | 15275.5 RLU | 25 min |  | 24.2% |  |  | 
CCN(CC)C(=S)[S-].[Na+] [organic sulfur reagent, sodium diethyldithiocarbamate] |  |  |  |  |  |  |  |  |  | no effect on the stabilization of luminescent reactions
